From patent US7541383B2, “Asthma and allergic inflammation modulators” (Amgen Inc., priority 2002, dated 2009)

The molecules below were run against T1, human CRTH2 (Homo sapiens, UniProt Q9Y5Y4) (assay: Human CRTH2 binding assay (3H-PGD2 ligand binding, 293(124) cells)). Settings: 3H-PGD2 binding to 293(124) cells stably expressing human CRTH2; room temperature, 2.5 h.
T1 construct: Full-length human CRTH2 cDNA was generated by polymerase chain reaction (PCR); expressed in transfected cells; host or cells: 293 cells stably transfected with pHLT124 (pCDNA3.1(+)), named 293(124)
T1 sequence (Q9Y5Y4 1-395): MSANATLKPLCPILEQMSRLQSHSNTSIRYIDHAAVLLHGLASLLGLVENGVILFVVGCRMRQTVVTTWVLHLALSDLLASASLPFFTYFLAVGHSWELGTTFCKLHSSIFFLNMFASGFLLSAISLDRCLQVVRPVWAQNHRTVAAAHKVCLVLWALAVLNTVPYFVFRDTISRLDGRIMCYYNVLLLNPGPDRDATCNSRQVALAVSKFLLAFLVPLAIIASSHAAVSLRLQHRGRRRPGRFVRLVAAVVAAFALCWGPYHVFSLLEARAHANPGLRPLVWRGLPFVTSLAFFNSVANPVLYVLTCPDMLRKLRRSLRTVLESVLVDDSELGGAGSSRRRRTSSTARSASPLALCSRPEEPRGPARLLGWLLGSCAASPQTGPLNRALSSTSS
Procedure: Full-length human CRTH2 cDNA was generated by polymerase chain reaction (PCR) using human genomic DNA as template and subsequently cloned into pCDNA3.1(+) (Invitrogen), generating a CRTH2 expression plasmid pHLT124. The plasmid was transfected into 293 cells, […], using LipofectAMINE™ reagents (Gibco/BRL). G418 ([…]) was added to the culture 48 h after transfection and cells were maintained under selection for 3 weeks to ensure that all surviving cells stably expressed CRTH2. These cells are labeled as 293(124) hereafter.
^3H-PGD2 binding assay was performed using 293(124) cells. In brief, cells were washed and suspended in RPMI containing 0.5% BSA and 20 mM HEPES. Each assay contained 25,000 cells, appropriate amount of test compound when necessary and a mixture of 1 nM ^3H-PGD2 (Anmersham Pharmacia Biotech) and 30 nM of unlabeled PGD2 (Cayman Chemicals) in […] final volume. The cell mixture was incubated at room temperature for 2.5 h with shaking and the cells were separated from free ^3H-PGD2 and transferred onto a filter plate using a cell harvester. Radioactivity bound to the cells was measured on a liquid scintillation counter. Nonspecific binding was determined in the presence of […] of unlabeled PGD2.

| SMILES | IC50 [nM] |
| --- | --- |
| Cc1ccc(S(=O)(=O)Nc2ccccc2Cc2ccc(CC(=O)O)cc2)cc1 [Example 64] | < 1000 |
| Cc1ccc(S(=O)(=O)Nc2cc(C(F)(F)F)ccc2Oc2ccc(CC(=O)O)cc2)cc1 [Example 1, {4-[2-(toluene-4-sulfonylamino)-4-trifluoromethyl-phenoxy]-phenyl}-acetic acid] | 1000 to 15000 |
| O=C(O)Cc1cc(OCc2ccccc2)cc(C(F)(F)F)c1 [Example 5, (3-benzyloxy-5-trifluoromethyl-phenyl)-acetic acid] | 1000 to 15000 |
| COc1ccc(Oc2cccc(CC(=O)O)c2)c(NS(=O)(=O)c2ccccc2)c1 [Example 36, 3-(4-Methoxy-2-benzenesulfonylamino-phenoxy)phenylacetic acid] | 1000 to 15000 |
| O=C(O)Cc1ccc(Oc2ccc(C(F)(F)F)cc2NS(=O)(=O)c2cccc3ccccc23)cc1 [Example 2, {4-[2-(Naphthalene-1-sulfonylamino)-4-trifluoromethyl-phenoxy]-phenyl}-acetic acid] | 1000 to 15000 |
| O=C(O)Cc1cn(Cc2ccccc2NCc2ccccc2)c2ccccc12 [Example 63] | 1000 to 15000 |
| CCOC(=O)Cc1cccc(Oc2ccccc2[N+](=O)[O-])c1 [Example 31, Ethyl 3-(2-nitrophenoxy)phenylacetate] | > 15000 |
| CS(=O)(=O)Nc1cc(C(F)(F)F)ccc1Oc1ccc(CC(=O)O)cc1 [Example 4, [4-(2-Methanesulfonylamino-4-trifluoromethyl-phenoxy)-phenyl]-acetic acid] | > 15000 |
| O=C(O)Cc1ccc(Oc2ccc(C(F)(F)F)cc2NC(=O)c2ccccc2)cc1 [Example 3, [4-(2-Benzoylamino-4-trifluoromethyl-phenoxy)-phenyl]-acetic acid] | 1000 to 15000 |

Other lines, results leading:

| IC50 [nM] | SMILES |
| --- | --- |
| < 1000 | CCNC(=O)c1ccc(C(=O)c2cc(CC(=O)O)ccc2OC)c(NS(=O)(=O)c2ccc(C)cc2)c1 [Example 70] |
| 1000 to 15000 | CCNC(=O)c1ccc(Oc2cc(CC(=O)O)ccc2OC)c(NC(=O)OC(C)C)c1 [Example 77, [3-(4-Ethylcarbamoyl-2-isopropoxycarbonylamino-phenoxy)-4-methoxy-phenyl]-acetic acid] |
| < 1000 | CCNC(=O)c1ccc(Oc2ccc(CCC(=O)O)cc2)c(NS(=O)(=O)c2ccccc2)c1 [Example 10, 3-[4-(2-Benzenesulfonylamino-4-ethylcarbamoyl-phenoxy)-phenyl]-propionic acid] |
| 1000 to 15000 | O=C(O)Cc1cccc(Oc2ccc(C(=O)c3ccccc3)cc2NS(=O)(=O)c2ccccc2)c1 [Example 33, 3-(4-Benzoyl-2-benzenesulfonylamino-phenoxy)phenylacetic acid] |
| < 1000 | CCNC(=O)c1cc(NS(=O)(=O)c2ccc(Cl)cc2Cl)c2oc3c(Cl)cc(CC(=O)O)cc3c2c1 [Example 18, [4-chloro-6-(2,4-dichloro-benzenesulfonyl-amino)-8-ethylcarbamoyl-dibenzofuran-2-yl]-acetic acid] |
| < 1000 | CCNC(=O)c1ccc(Oc2ccc(CC(=O)O)cc2OC)c(NS(=O)(=O)c2ccc(Cl)cc2Cl)c1 [Example 12, (4-[2-(2,4-Dichloro-benzenesulfonyl-amino)-4-ethylcarbamoyl-phenoxy]-3-methoxy-phenyl)-acetic acid] |
| < 1000 | CCNC(=O)c1ccc(Oc2ccc(Cc3nnn[nH]3)cc2OC)c(NS(=O)(=O)c2ccc(Cl)cc2Cl)c1 [Example 75, 3-(2,4-Dichloro-benzenesulfonylamino)-N-ethyl-4-[2-methoxy-4-(1H-tetrazol-5-ylmethyl)-phenoxy]-benzamide] |
| < 1000 | O=C(O)Cc1cccc(Oc2ccc(Cl)cc2NS(=O)(=O)c2ccccc2)c1 [Example 35, 3-(4-Chloro-2-benzenesulfonylamino-phenoxy)phenylacetic acid] |
| 1000 to 15000 | CCNC(=O)c1ccc(S(=O)(=O)c2ccc(CC(=O)O)cc2)c(NS(=O)(=O)c2ccc(Cl)cc2Cl)c1 [Example 17, {4-[2-(2,4-dichloro-benzenesulfonyl-amino)-4-ethylcarbamoyl-benzenesulfonyl]-phenyl}-acetic acid] |
